Results on 1 molecule are retold here after paper PMC4603778, “Encoded Library Synthesis Using Chemical Ligation and the Discovery of sEH Inhibitors from a 334-Million Member Library” (Scientific Reports, 2015).

The experiment concerns the target T1, soluble epoxide hydrolase (sEH) (Homo sapiens, UniProt P34913).
T1 construct: gene EPHX2; His-tagged sEH protein (used in the selection)
T1 sequence (P34913 1-555): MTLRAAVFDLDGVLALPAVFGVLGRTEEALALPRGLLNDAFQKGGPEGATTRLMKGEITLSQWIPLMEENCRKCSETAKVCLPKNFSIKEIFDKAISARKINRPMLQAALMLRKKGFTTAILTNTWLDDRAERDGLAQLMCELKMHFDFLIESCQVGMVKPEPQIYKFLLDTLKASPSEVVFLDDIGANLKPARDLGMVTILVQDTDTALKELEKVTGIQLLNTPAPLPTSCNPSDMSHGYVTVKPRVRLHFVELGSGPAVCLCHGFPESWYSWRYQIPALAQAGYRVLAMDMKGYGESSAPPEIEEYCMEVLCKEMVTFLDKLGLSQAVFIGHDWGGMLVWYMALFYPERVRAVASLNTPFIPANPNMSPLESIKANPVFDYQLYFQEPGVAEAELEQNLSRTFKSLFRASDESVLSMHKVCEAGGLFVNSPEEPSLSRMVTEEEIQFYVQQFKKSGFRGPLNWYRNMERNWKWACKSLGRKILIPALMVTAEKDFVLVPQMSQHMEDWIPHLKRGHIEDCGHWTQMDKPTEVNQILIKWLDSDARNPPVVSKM
In words: biochemical sEH inhibition assay of off-DNA compound (methyl in place of DNA linker); building-block combination enriched in affinity selection.

As a reminder, the IC50 is the concentration that gives 50% inhibition. Regarding `CN(CCn1cccn1)C(=O)c1ccc(-c2cccc(C(=O)NC3CCCCC3)c2)nc1` [compound 12], the IC50 came to 2 nM.
